Key:
Type in all cases: cell-based
[1] = test system: VDAC1 mRNA in human islets; assay: VDAC1 mRNA in non-diabetic human islets cultured under glucotoxic condition; conditions: 72 h at 20 mM glucose, metformin 20 μM (FIG. 1d)
Protocol: Total RNA from handpicked mouse islets, human donor islets (Diabetic and non-diabetic) or [MUT] cells were extracted using RNAeasy (Qiagen, Hilden, Germany). […] Concentration and purity of total RNA was measured with a NanoDrop ND-1000 spectrophotometer (A260/A280>1.9 and A260/A230>1.4) (NanoDrop Technologies, Wilmington, Del.) and RNA Quality Indicator (RQI) higher than 8.0 (Experion Automated Electrophoresis, Bio-Rad, USA) was considered to be high-quality total RNA preparations. […] The qPCR was carried out as follows: 50° C. for 2 minutes, 95° C. for 10 minutes, 40 cycles of 95° C. for 15 seconds, and 60° C. for 1 minute. […] VDAC1 and VDAC2 mRNA and protein level were investigated by both qPCR and Western blotting relative to the expression of GAPDH and β-actin respectively.

plVDAC1 = biological target: T1, plVDAC1 (Mus musculus, UniProt Q60932); assay: Whole-cell patch-clamp membrane conductance in INS-1 cells; conditions: superfusion with metformin 20 μM (FIG. 4f)
T1 construct: expressed in transfected cells; host or cells: INS-1 832/13 cells (rat insulinoma), transient transfection; plasmid a gift from Dr. R. Buettner
T1 sequence (Q60932 whole entry, the tested form may be a part): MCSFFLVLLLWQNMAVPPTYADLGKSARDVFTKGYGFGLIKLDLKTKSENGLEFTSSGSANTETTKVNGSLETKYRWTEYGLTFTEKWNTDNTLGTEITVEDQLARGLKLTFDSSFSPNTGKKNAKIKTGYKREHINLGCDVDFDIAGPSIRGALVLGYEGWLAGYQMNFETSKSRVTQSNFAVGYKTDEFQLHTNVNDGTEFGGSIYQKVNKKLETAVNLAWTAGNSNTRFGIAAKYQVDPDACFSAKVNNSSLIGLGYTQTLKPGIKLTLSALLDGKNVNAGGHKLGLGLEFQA
Protocol: Whole-cell currents in INS-1 832/13 cells were evoked and recorded by EPC10 amplifier and Pulse software (HEKA, Lambrecht/Pfalz, Germany) as previously described (Buda P. et al. 2013. PLoS One. 8(5):e64462) with the temperature maintained at 32° C. The cells were continuously perfused with extracellular solution containing 118 mM NaCl, 20 mM tetraethylammonium chloride, 5.6 mM KCl, 2.6 mM CaCl2), 1.2 mM MgCl2, 5 mM HEPES and 5 mM glucose (pH 7.4 with NaOH) in the presence of 100 μM tolbutamide (T0891, Sigma-Aldrich). The intracellular solution consisted of 125 mM Cs-glutamate, 10 mM CsCl, 10 mM NaCl, 1 mM MgCl2, 5 mM HEPES, 3 mM Mg-ATP, 0.1 mM cAMP and 0.05 mM EGTA (pH 7.2 with CsOH). […] Conductance was measured by applying 200-ms voltage ramps from −90 mV to −50 mV. […] Data presented are from […] after the addition when steady-state was reached.
Conductance measurements were performed after at least 5 minutes exposure, and the cell dish was replaced no later than after 1 hour of perfusion. No wash-out experiments were performed in this experiment.

human ND islets = assay: GSIS in non-diabetic human islets cultured at 5 or 20 mM glucose
Excerpt: Human pancreatic islets were obtained through collaboration between Human Tissue Laboratory within Lund University Diabetes Centre (LUDC) and the Nordic Network for Clinical Islet Transplantation (Prof. Olle Korsgren, Uppsala University, Sweden). Donors were grouped according to HbA1c i.e. less than 6% (ND), between 6% and 6.5% (IGT), higher than 6.5% or history of diabetes (T2D). The human islets (70-90% purity) had been cultured in CMRL 1066 (ICN Biomedicals, Costa Mesa, Calif.) supplemented with 10 mM HEPES, 2 mM L-glutamine, […] gentamicin, […] fungizone (Gibco, BRL, Gaithersburg, Md.), 20 μg/ml ciprofloxacin (Bayer Healthcare, Leverkusen, Germany) and 10 mM nicotinamide at 37° C. (5% CO2) for 1 to 5 days prior to the arrival in the laboratory. The islets were then hand-picked under stereomicroscope prior to use. All procedures using human islets were approved by the ethical committees at Uppsala and Lund Universities, Sweden.
Human pancreatic islets were collected under a stereomicroscope at room temperature and cultured at 5.5 or 20 mM glucose in the absence or presence of test agents for 72 h. Thereafter the islets were washed and preincubated for 30 min at 37° C. in Krebs Ringer bicarbonate buffer, pH 7.4, supplemented with N-2 hydroxyethylpiperazine-N′-2-ethanesulfonic acid (10 mM), 0.1% bovine serum albumin, and 1 mM glucose. […]

CN(C)C(=N)N=C(N)N [metformin]
VDAC1 mRNA [1]: prevented the increase in VDAC1 mRNA | elevated conductance in plVDAC1-transformed cells (plVDAC1): abrogating the elevated conductance | membrane currents in control INS-1 cells (plVDAC1): did not affect membrane currents | GSIS after culture at 5 mM glucose (human ND islets; 72 h culture with agent (FIG. 6d)): unaffected | GSIS after culture at 20 mM glucose (human ND islets; 72 h culture with agent, then 1 h at 1G or 16.7G (FIG. 6d)): prevented the attenuation of GSIS
